Experimental data published in patent US11591325B2, “2-polysubstituted aromatic ring-pyrimidine derivatives, preparation and medical application thereof” (ZHEJIANG UNIVERSITY, priority 2016, dated 2023).
pIC50: −log10 of the molar value. Where two headings read alike, the source gives them in different places.

Columns and labels:
Chk1 protein kinase = target: T1, Chk1 protein kinase (Homo sapiens, UniProt O14757); experiment: Chk1 enzyme inhibitory activity, ADP-Glo kit; format: biochemical
T1 sequence (O14757 1-476): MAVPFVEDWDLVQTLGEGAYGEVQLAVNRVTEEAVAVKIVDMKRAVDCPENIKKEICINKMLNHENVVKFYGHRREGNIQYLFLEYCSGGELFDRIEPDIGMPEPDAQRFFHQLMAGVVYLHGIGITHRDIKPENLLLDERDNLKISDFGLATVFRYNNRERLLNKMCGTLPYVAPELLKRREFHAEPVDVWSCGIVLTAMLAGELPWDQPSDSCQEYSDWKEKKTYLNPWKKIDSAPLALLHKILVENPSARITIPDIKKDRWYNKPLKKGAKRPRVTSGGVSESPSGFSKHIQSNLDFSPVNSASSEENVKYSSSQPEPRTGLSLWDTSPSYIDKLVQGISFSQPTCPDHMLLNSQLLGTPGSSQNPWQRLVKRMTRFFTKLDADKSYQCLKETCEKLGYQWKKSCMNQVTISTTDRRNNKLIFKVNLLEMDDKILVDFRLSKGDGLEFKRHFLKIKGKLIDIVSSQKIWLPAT
Description: With the Saurosporine as a positive control, the Chk1 enzyme inhibitory activity (IC50) was evaluated using the ADP-Glo kit. […] The phosphorylation process consumes ATP. After the reaction, ADP-Glo™ Reagent consumes the remaining ATP. The ADP produced during the reaction can be transformed by ADP-Glo Detection Reagent. For ATP, ATP acts as a substrate for the Ultra-Glo™ luciferase catalytic reaction, producing an optical signal. The test compound was dissolved in DMSO to make a 10 mM stock solution and diluted to 12 different concentrations in a certain ratio for testing. […] Incubate for 1 h, stop the reaction by adding 5 μL of ADP-Glo™ Reagent, and incubate for 1 h at 37° C. 10 μL of ADP-Glo Detection Reagent was added, incubated at 37° C. for 30 min, and three parallel wells were set for each sample. […] was measured by luminescence fluorescence microplate reader, and data were calculated using GraphPad Prism 5 software to calculate IC50 values.

[1] = tested on: human lymphoma cells Romas; experiment: MTS in vitro proliferation assay, Romas; format: cell-based; settings: 72 hours
Description: (§1) The cells in the logarithmic growth phase were trypsinized, counted, and seeded at a density of 1×10^4 cells/well in a 96-well plate at 100 μL per well in a 37° C. incubator containing 5% CO2 overnight. For the culture, six concentration gradients were set for each compound, and three sets of duplicate wells were set for each concentration. After the addition, the cells were cultured for 72 hours, and 20 μL of MTS was added. After incubating for 2 hours at 37° C., the absorbance at 490 nm (L1) was measured with a SpectraMAX 340 microplate reader.

[2] = tested on: human multiple myeloma cells RPMI 8226; experiment: MTS in vitro proliferation assay, RPMI 8226; format: cell-based; settings: 72 hours, read-out: IC50(μM) RPMI8226
Description: as §1

[3] = tested on: human gastric cancer cell BGC-823; experiment: MTS in vitro proliferation assay, BGC-823; format: cell-based; settings: 72 hours, average of three experiments
Description: as §1

[4] = tested on: human colon cancer cell HCT116; experiment: MTS in vitro proliferation assay, HCT116; format: cell-based; settings: HCT-116, 72 hours, average of three experiments
Description: as §1

[5] = tested on: human prostate cancer cell LnCAP; experiment: MTS in vitro proliferation assay, LnCAP; format: cell-based; settings: 72 hours, average of three experiments
Description: as §1

[6] = tested on: human mantle cell lymphoma cells Jeko-1; experiment: MTS in vitro proliferation assay, Jeko-1; format: cell-based; settings: 72 hours
Description: as §1

[7] = tested on: human breast cancer cells MCF-7; experiment: cells; settings: MCF7, 72 h, read-out: IC50(μM) MCF-7
Description: as §1

[8] = tested on: human ovarian cancer cell OVCAR-8; experiment: MTS in vitro proliferation assay, OVCAR-8; format: cell-based; settings: 72 hours, average of three experiments
Description: as §1

[9] = tested on: human colon cancer cell Colo205; experiment: MTS in vitro proliferation assay, Colo205; format: cell-based; settings: COLO 205, 72 hours, average of three experiments
Description: as §1

[10] = tested on: Human lung cancer cell A549; experiment: MTS in vitro proliferation assay, A549; format: cell-based; settings: 72 hours, average of three experiments
Description: as §1

[11] = tested on: human mantle cell lymphoma cells Mino; experiment: MTS in vitro proliferation assay, Mino; format: cell-based; settings: 72 hours
Description: as §1

[12] = tested on: human acute monocytic leukemia cells MV-4-11; experiment: MTS in vitro proliferation assay, MV-4-11; format: cell-based; settings: MV4-11, 72 hours
Description: as §1

[13] = Table 2 >10 μM or <1 μM, read-out: Chk1 IC50, bound with unit
[14] = Table 2 left column pair, numeric cells, read-out: Chk1 (IC50)

pIC50 (Chk1 protein kinase; [13]) | pIC50 (Chk1 protein kinase; [14]) | SMILES | IC50 [1] [µM] | IC50 [2] [µM] | IC50 [3] [µM] | IC50 [4] [µM] | IC50 [5] [µM] | IC50 [6] [µM] | IC50 [7] [µM] | IC50 [8] [µM] | IC50 [9] [µM] | IC50 [10] [µM] | IC50 [11] [µM] | IC50 [12] [µM]
< 5.00 | – | CNc1nc(Nc2cc(OC3CCNCC3)n(C)n2)ncc1-c1cnn(C)c1 [Compound 1, N^4-methyl-5-(1-methyl-1H-pyrazol-4-yl)-N^2-(1-methyl-5-(piperidin-4-yloxy)pyrazol-3-yl)-2,4-diaminopyrimidine] | – | – | – | – | – | – | – | – | – | – | – | –
– | – | CNc1nc(Nc2cnc(C#N)c(O[C@@H]3CCCNC3)c2)ncc1-c1cnn(C)c1 [Compound 35, (R)-N^4-methyl-5-(1-methyl-1H-pyrazol-4-yl)-N^2-(2-cyano-3-(piperidin-3-yloxy)pyridin-5-yl)-2,4-diaminopyrimidine] | 0.356 | 1.27 | 4.81 | 0.98 | 2.17 | 0.339 | 1.01 | 0.789 | 0.663 | 2.16 | 0.647 | 0.053
> 6.00 | – | N#Cc1ncc(Nc2ncc(C(F)(F)F)cn2)cc1OC1CCCNC1 (stereo not shown) [Compound 45, 5-trifluoromethyl-N-(2-cyano-3-(piperidin-3-oxy)pyridin-5-yl)-2-aminopyrimidine] | – | – | – | – | – | – | – | – | – | – | – | –
– | 8.06 | COc1nc(Nc2cnc(C#N)c(OCC3CCNCC3)c2)ncc1-c1cccc(F)c1 [Compound 17, 4-methoxy-5-(3-fluorophenyl)-N-(2-cyano-3-(piperidin-4-methyl)oxypyridin-5-yl)-2-aminopyrimidine] | 0.348 | 3.29 | > 10 | 1.9 | > 10 | 0.117 | – | 0.22 | 0.878 | 4.24 | 0.495 | 0.05
– | – | CNc1nc(Nc2cnc(C#N)c(O[C@H]3CCCNC3)c2)ncc1-c1cnn(C)c1 [Compound 36, (S)-N^4-methyl-5-(1-methyl-1H-pyrazol-4-yl)-N^2-(2-cyano-3-(piperidin-3-yloxy)pyridin-5-yl)-2,4-diaminopyrimidine] | 0.649 | 2.49 | – | 2.55 | 4.89 | 0.548 | – | 4.18 | 2.18 | 5.74 | 0.956 | 0.072
– | – | CNc1nc(Nc2cnc(C#N)c(OC3CCCNC3)c2)ncc1-c1cnn(C)c1 (stereo not shown) [Compound 32, N^4-Methyl-5-(1-methyl-1H-pyrazol-4-yl)-N^2-(2-cyano-3-(piperidin-3-yloxy)pyridin-5-yl)-2,4-diaminopyrimidine] | 0.789 | 8.18 | 7.64 | 4.18 | 6 | 0.189 | – | – | – | 5.17 | 0.859 | 0.064
– | – | CNc1nc(Nc2cnc(C#N)c(O[C@@H](C)CN(C)C)c2)ncc1-c1cnn(C)c1 [Compound 42, (S)-N^4-methyl-5-(1-methyl-1H-pyrazol-4-yl)-N^2-(2-cyano-3-(1-dimethylaminopropyl-2-oxy)pyridin-5-yl)-2,4-diaminopyrimidine] | 0.218 | 0.814 | – | 4.19 | 5.74 | 0.137 | – | 2.17 | 1.03 | > 10 | 0.227 | 0.092
– | 8.74 | COc1nc(Nc2cnc(C#N)c(OCC3CCNCC3)c2)ncc1-c1cnn(C)c1 [Compound 18, 4-methoxy-5-(1-methyl-1H-pyrazol-4-yl)-N-(2-cyano-3-(piperidin-4-methyl)oxypyridin-5-yl)-2-aminopyrimidine] | – | – | 7.11 | 1.77 | 7 | – | – | 2.14 | 1.01 | 3.17 | – | 0.036
> 6.00 | – | COc1nc(Nc2cnc(C#N)c(OCC3CCNCC3)c2)ncc1C(F)(F)F [Compound 46, 4-methoxy-5-trifluoromethyl-N-(2-cyano-3-(piperidin-4-methyl)oxypyridin-5-yl)-2-aminopyrimidine] | – | – | – | – | – | – | – | – | – | – | – | –
< 5.00 | – | CNc1nc(Nc2cc(OC3CCNCC3)ns2)ncc1-c1cnn(C)c1 [Compound 4, N^4-Methyl-5-(1-methyl-1H-pyrazol-4-yl)-N^2-(2-(piperidin-4-yloxy)isothiazol-5-yl)-2,4-diaminopyrimidine] | – | – | – | – | – | – | – | – | – | – | – | –
> 6.00 | – | CNc1nc(Nc2cnc(C#N)c(O[C@@H]3CCCNC3)c2)ncc1C(F)(F)F [Compound 47, (R)—N^4-methyl-5-trifluoromethyl-N^2-(2-cyano-3-(piperidin-3-oxy)pyridin-5-yl)-2,4-diaminopyrimidine] | – | – | – | – | – | – | – | – | – | – | – | –
< 5.00 | – | CNc1nc(Nc2cn(C)c(OC3CCNCC3)n2)ncc1-c1cnn(C)c1 [Compound 3, N^4-Methyl-5-(1-methyl-1H-pyrazol-4-yl)-N^2-(1-methyl-2-(piperidin-4-yloxy)imidazol-4-yl)-2,4-diaminopyrimidine] | – | – | – | – | – | – | – | – | – | – | – | –
< 5.00 | – | CNc1nc(Nc2cnc(OC3CCNCC3)s2)ncc1-c1cnn(C)c1 [Compound 6, N^4-Methyl-5-(1-methyl-1H-pyrazol-4-yl)-N^2-(2-(piperidin-4-yloxy)thiazol-5-yl)-2,4-diaminopyrimidine] | – | – | – | – | – | – | – | – | – | – | – | –
< 5.00 | – | CNc1nc(NC2CN=C(OC3CCNCC3)O2)ncc1-c1cnn(C)c1 (stereo not shown) [Compound 5, N^4-Methyl-5-(1-methyl-1H-pyrazol-4-yl)-N^2-(2-(piperidin-4-yloxy)-4,5-2H-oxazolin-5-yl)-2,4-diaminopyrimidine] | – | – | – | – | – | – | – | – | – | – | – | –
< 5.00 | – | CNc1nc(Nc2cc(OC3CCNCC3)no2)ncc1-c1cnn(C)c1 [Compound 2, N^4-Methyl-5-(1-methyl-1H-pyrazol-4-yl)-N^2-(3-(piperidin-4-yloxy)isoxazol-5-yl)-2,4-diaminopyrimidine] | – | – | – | – | – | – | – | – | – | – | – | –
– | – | CNc1nc(Nc2cnc(C#N)c(O[C@H](C)CN(C)C)c2)ncc1-c1cnn(C)c1 [Compound 41, (R)-N^4-methyl-5-(1-methyl-1H-pyrazol-4-yl)-N^2-(2-cyano-3-(1-dimethylaminopropyl-2-oxy)pyridin-5-yl)-2,4-diaminopyrimidine] | 0.119 | 0.945 | 5.17 | 1.31 | 2.62 | 0.094 | 1.01 | 1.19 | 0.993 | 2.17 | 0.473 | 0.034
